Laboratory results: patent US6514981B1, “Methods of modulating tyrosine protein kinase function with indolinone compounds” (Sugen, Inc., priority 1998, dated 2003)

Tested on: HUV-EC-C cells
Assay: HUV-EC-C assay (3H-thymidine), VEGF
Type: cell-based
Settings: Homo sapiens, 3H-thymidine incorporation, HUVEC
Protocol: The following protocol may also be used to measure a compound's activity against PDGF-R, FGF-R or Flk-1/KDR, all of which are naturally expressed by HUV-EC cells. 1. Wash and trypsinize HUV-EC-C cells (human umbilical vein endothelial cells, (American Type Culture Collection; catalogue no. 1730 CRL). Wash with Dulbecco's phosphate-buffered saline (D-PBS; obtained from Gibco BRL, catalogue no. 14190-029) 2 times at about 1 mL/10 CM^2 of tissue culture flask. Trypsinize with 0.05% trypsin-EDTA in non-enzymatic cell dissociation solution (Sigma Chemical Company; catalogue no. C-1544). The 0.05% trypsin was made by diluting 0.25% trypsin/1 mM EDTA (Gibco; catalogue no. 25200-049) in the cell dissociation solution. Trypsinize with about 1 mL/25-30 cm^2 of tissue culture flask for about 5 minutes at 37° C. After cells have detached from the flask, add an equal volume of assay medium and transfer to a 50 mL sterile centrifuge tube (Fisher Scientific; catalogue no. 05-539-6). 2. Wash the cells with about 35 mL assay medium in the 50 mL sterile centrifuge tube by adding the assay medium, centrifuge for 10 minutes at approximately 200×g aspirate the supernatant and resuspend with 35 mL D-PBS. Repeat the wash two more times with D-PBS, resuspend the cells in about 1 mL assay medium/15 cm^2 of tissue culture flask. […]

Cc1cc(/C=C2/C(=O)Nc3ccccc32)c(C)c2c1[nH]c1ccccc12 [VI]
IC50: 0.68 µM
